Consider 13 compounds from US20130259884A1, “PEPTIDES” ([…] SL, priority 2010, published 2013).

This data set is described as follows: Water solubility of peptides when preparing stock solutions. The class given is physicochemical. The note with it: stock solution in sterile distilled water or 100% DMSO; read-out: solubility of peptide (water soluble or water insoluble, dissolved in DMSO). As to the method: For challenge, peptides were administered as follows: • Individual peptides (soluble). Individual water soluble peptides were dissolved as 10, 5 or 2.5 mg/ml stock solutions in sterile distilled water. Before use, each peptide was diluted in water to 2 mg/ml and 10 μl of this 2 mg/ml mix was added to 990 μl of media. Then 100 μl of this peptide/media mix was added to 100 μl of media containing 350,000 PBMC in an ELISPOT anti-IL-4 coated cell culture plate well for a final peptide concentration of 10 μg/ml. Identically diluted media only was added to the cells and used for the no peptide media control wells (media only). • Individual peptides (DMSO). Individual water insoluble peptides were dissolved in 100% DMSO to a stock concentration of 50 mg/ml. Before use each peptide was diluted in water to 2 mg/ml and then 10 μl of the 2 mg/ml mix was added to 990 μl of cell-culture media. Then 100 μl of this peptide/media mix was added to 100 μl of media containing 350,000 PBMC in an ELISPOT anti-IL-4 coated cell culture plate well for a final peptide concentration of 10 μg/ml. Identically diluted media only was added to the cells and used for the no peptide media control wells (media only). • A combination preparation containing Alt a 1 soluble peptides (33.2, 34.3, 35.4, 35.5, 37.3.1, 37.4.1, L6-5.01, L10-1.01, L10-2.01, L10-3), called Alt a 1 Sol. Each peptide was diluted from water stock to 2 mg/ml in sterile distilled water. Then 10 μl of each peptide required for the combined preparation was mixed and brought up to 1 ml in media. Then 100 μl of this peptide/media mix was added to 100 μl of media containing 350,000 PBMC in an ELISPOT anti-IL-4 coated cell culture plate well for a final concentration of each peptide of 10 μg/ml. Identically diluted media only was used for the no peptide control wells (media only). • A combination preparation containing Alt a 1 DMSO peptides (32.2.1, 38.2.1, 35.2, 35.3, L6-2, L6-3, L6-4, 38.3, 37.2), called Alt a 1 DMSO. Each peptide was diluted from DMSO stock to 2 mg/ml in sterile distilled water. Then 10 μl of each peptide required for the combined preparation was mixed and brought up to 1 ml in media. Then 100 μl of this peptide/media mix is added to 100 μl of media containing 350,000 PBMC in an ELISPOT anti-IL-4 coated cell culture plate well for a final concentration of each peptide of 10 μg/ml. Identically diluted media only was used for the no peptide control wells (media only). • A combination preparation containing non-Alt a 1 soluble peptides (40.2, 41.2, 43.2, 44.2, 46.2, 47.2.1, 56.2, 57.2.1, 60.2, 62.2.1, 67.2, 71.3), called Alt a Other Sol. Each peptide was diluted from water stock to 2 mg/ml in sterile distilled water. Then 10 μl of each peptide required for the combined preparation was mixed and brought up to 1 ml in media, Then 100 μl of this peptide/media mix was added to 100 μl of media containing 350,000 PBMC in an ELISPOT anti-IL-4 coated cell culture plate well for a final concentration of each peptide at 10 μg/ml. Identically diluted media only was used for the no peptide control wells (media only). • A combination preparation containing non-Alt a 1 DMSO peptides (39.2, 42.2, 45.2, 48.2.1, 50.2, 51.2.1, 61.2.1, 66.3.1, 68.2.1, 70.2, 71.2, 72.2), called Alt a Other DMSO. Each peptide was diluted from DMSO stock to 2 mg/ml in sterile distilled water. Then 10 ul of each peptide required for the combined preparation was mixed and brought up to 1 ml in media, Then 100 μl of this peptide/media mix was added to 100 μl of media containing 350,000 PBMC in an ELISPOT anti-IL-4 coated cell culture plate well for a final concentration of each peptide at 10 μg/ml. Identically diluted media only was used for the no peptide control wells (media only).

Where a SMILES comes first, the peptide text is derived from it.

For `CC(C)C[C@H](NC(=O)[C@H](C)NC(=O)[C@H](CCCNC(=N)N)NC(=O)[C@H](C)N)C(=O)N[C@@H](CCCNC(=N)N)C(=O)N[C@@H](CCCNC(=N)N)C(=O)N[C@@H](CC(C)C)C(=O)N[C@@H](CCCNC(=N)N)C(=O)N[C@H](C(=O)N[C@@H](C)C(=O)N[C@@H](CS)C(=O)N[C@@H](CCC(=O)O)C(=O)N[C@@H](CCCNC(=N)N)C(=O)N[C@@H](C)C(=O)N[C@@H](CCCCN)C(=O)O)[C@@H](C)O` [Peptide 41.2, ARALRRLRTACERAK] (H-ARALRRLRTACERAK-OH; N-terminus and C-terminus assumed), the solubility is more than 2500 µg/mL.
For `CC[C@H](C)[C@H](NC(=O)[C@H](CCC(=O)O)NC(=O)[C@H](CC(=O)O)NC(=O)[C@@H]1CCCN1)C(=O)N[C@@H](CCC(N)=O)C(=O)NCC(=O)N[C@@H](Cc1ccccc1)C(=O)N1CCC[C@H]1C(=O)N[C@H](C(=O)N[C@H](C(=O)N[C@@H](CCCCN)C(=O)N[C@@H](CC(C)C)C(=O)N[C@@H](Cc1ccccc1)C(=O)N1CCC[C@H]1C(=O)N[C@@H](C)C(=O)O)[C@@H](C)CC)[C@@H](C)O` [Peptide 43.2, PDEIQGFPTIKLFPA] (H-PDEIQGFPTIKLFPA-OH), the solubility is more than 2500 µg/mL.
Turning to `CC[C@H](C)[C@H](NC(=O)[C@H](CCC(N)=O)NC(=O)CNC(=O)[C@H](CO)NC(=O)[C@H](CCCNC(=N)N)NC(=O)[C@H](CC(C)C)NC(=O)CNC(=O)[C@@H](NC(=O)[C@@H](NC(=O)[C@@H](NC(=O)[C@H](CC(=O)O)NC(=O)[C@H](C)N)[C@@H](C)CC)C(C)C)C(C)C)C(=O)N[C@@H](CCCCN)C(=O)N[C@H](C(=O)NCC(=O)O)[C@@H](C)O` [Peptide 44.2, ADIVVGLRSGQIKTG] (H-ADIVVGLRSGQIKTG-OH), the solubility is more than 2500 µg/mL.
Under `CC(C)C[C@H](NC(=O)[C@@H](NC(=O)CNC(=O)[C@@H](NC(=O)[C@H](CO)NC(=O)[C@@H](NC(=O)[C@H](Cc1ccccc1)NC(=O)[C@@H](NC(=O)CNC(=O)[C@H](C)N)C(C)C)C(C)C)[C@@H](C)O)[C@@H](C)O)C(=O)NCC(=O)NCC(=O)NCC(=O)N[C@@H](CCC(N)=O)C(=O)N[C@@H](CCC(=O)O)C(=O)O` [Peptide 45.2, AGVFVSTGTLGGGQE] (H-AGVFVSTGTLGGGQE-OH) stands less than 2500 µg/mL; under `CC[C@H](C)[C@H](NC(=O)[C@@H](NC(=O)[C@@H](NC(=O)[C@H](CCCCN)NC(=O)CNC(=O)[C@@H](N)CCCCN)C(C)C)C(C)C)C(=O)N[C@H](C(=O)N[C@H](C(=O)NCC(=O)N[C@@H](C)C(=O)N[C@@H](CO)C(=O)NCC(=O)N1CCC[C@H]1C(=O)N[C@H](C(=O)NCC(=O)O)[C@@H](C)O)[C@@H](C)O)C(C)C` [Peptide 46.2, KGKVVIVTGASGPTG] (H-KGKVVIVTGASGPTG-OH), more than 2500 µg/mL.
Take `CC[C@H](C)[C@H](NC(=O)[C@H](Cc1c[nH]cn1)NC(=O)CNC(=O)[C@H](CO)NC(=O)[C@H](CC(C)C)NC(=O)[C@H](CO)NC(=O)[C@H](CO)NC(=O)[C@@H](NC(=O)[C@@H](NC(=O)[C@@H](NC(=O)[C@H](CC(C)C)NC(=O)[C@H](CO)NC(=O)CNC(=O)[C@@H](N)[C@@H](C)O)C(C)C)[C@@H](C)CC)[C@@H](C)O)C(=O)N[C@@H](C)C(=O)O` [Peptide 47.2.1, TGSLVITSSLSGHIA] (H-TGSLVITSSLSGHIA-OH): the solubility was more than 2500 µg/mL.
On to `CC[C@H](C)[C@H](NC(=O)[C@H](C)NC(=O)[C@H](Cc1c[nH]c2ccccc12)NC(=O)[C@@H](N)C(C)C)C(=O)N[C@H](C(=O)N[C@@H](CC(C)C)C(=O)N[C@@H](CC(C)C)C(=O)N[C@@H](CO)C(=O)N[C@@H](CC(C)C)C(=O)N[C@H](C(=O)N[C@@H](CCC(N)=O)C(=O)N[C@@H](CC(C)C)C(=O)N[C@H](C(=O)N[C@H](C(=O)N1CCC[C@H]1C(=O)O)[C@@H](C)O)[C@@H](C)O)C(C)C)C(C)C` [Peptide 48.2.1, VWAIVLLSLVQLTTP] (H-VWAIVLLSLVQLTTP-OH), for which the solubility was less than 2500 µg/mL.
Under `CC[C@H](C)[C@H](NC(=O)CNC(=O)[C@@H](N)C(C)C)C(=O)N[C@@H](Cc1ccccc1)C(=O)N[C@@H](CCCNC(=N)N)C(=O)N[C@@H](CC(=O)O)C(=O)N[C@@H](CC(=O)O)C(=O)N[C@@H](CCCNC(=N)N)C(=O)N[C@H](C(=O)N[C@@H](CCC(=O)O)C(=O)N[C@H](C(=O)N[C@H](C(=O)N[C@@H](C)C(=O)N[C@@H](CC(N)=O)C(=O)N[C@@H](CC(=O)O)C(=O)O)[C@@H](C)CC)[C@@H](C)CC)[C@@H](C)CC` [Peptide 50.2, VGIFRDDRIEIIAND] (H-VGIFRDDRIEIIAND-OH; N-terminus and C-terminus assumed) stands less than 2500 µg/mL.
On to `CC(C)C[C@H](NC(=O)[C@H](C)NC(=O)[C@@H](NC(=O)[C@H](CCC(N)=O)NC(=O)[C@H](CC(N)=O)NC(=O)[C@@H](N)CCCCN)C(C)C)C(=O)N[C@@H](CC(N)=O)C(=O)N1CCC[C@H]1C(=O)N[C@H](C(=O)N[C@@H](CC(N)=O)C(=O)N[C@H](C(=O)N[C@H](C(=O)N[C@@H](Cc1ccccc1)C(=O)N[C@@H](CC(=O)O)C(=O)N[C@@H](C)C(=O)O)C(C)C)[C@@H](C)O)C(C)C` [Peptide 51.2.1, KNQVALNPVNTVFDA] (H-KNQVALNPVNTVFDA-OH), for which the solubility is less than 2500 µg/mL.
`CC[C@H](C)[C@H](NC(=O)[C@@H](NC(=O)[C@@H](NC(=O)[C@H](CC(C)C)NC(=O)[C@H](CCCCN)NC(=O)[C@H](CO)NC(=O)[C@@H](N)CC(C)C)C(C)C)[C@@H](C)O)C(=O)N[C@@H](C)C(=O)N[C@@H](CCCCN)C(=O)N[C@H](C(=O)N[C@@H](CC(=O)O)C(=O)N[C@@H](C)C(=O)N[C@H](C(=O)N[C@@H](CC(C)C)C(=O)N[C@@H](CC(N)=O)C(=O)O)[C@@H](C)O)C(C)C` [Peptide 56.2, LSKLVTIAKVDATLN] (H-LSKLVTIAKVDATLN-OH): the solubility was more than 2500 µg/mL.
`CC(C)C[C@H](NC(=O)CNC(=O)[C@H](CC(C)C)NC(=O)[C@H](CC(C)C)NC(=O)[C@H](CC(C)C)NC(=O)[C@H](Cc1ccc(O)cc1)NC(=O)[C@H](C)NC(=O)[C@H](C)NC(=O)[C@H](CC(C)C)NC(=O)[C@H](Cc1c[nH]cn1)NC(=O)[C@H](CCCCN)NC(=O)[C@@H](N)CC(C)C)C(=O)NCC(=O)NCC(=O)N[C@@H](CC(N)=O)C(=O)O` [Peptide 57.2.1, LKHLAAYLLLGLGGN] (H-LKHLAAYLLLGLGGN-OH): the solubility is more than 2500 µg/mL.
The result for `CC(C)C[C@H](NC(=O)[C@H](C)NC(=O)[C@H](CCCCN)NC(=O)[C@H](CC(C)C)NC(=O)[C@H](CCCCN)NC(=O)[C@H](CCC(N)=O)NC(=O)[C@H](Cc1ccc(O)cc1)NC(=O)[C@@H](NC(=O)[C@H](CCC(=O)O)NC(=O)[C@H](C)N)C(C)C)C(=O)N[C@@H](C)C(=O)N[C@@H](CCCCN)C(=O)N[C@@H](CCCCN)C(=O)N[C@H](C(=O)N[C@@H](Cc1ccc(O)cc1)C(=O)O)[C@@H](C)O` [Peptide 60.2, AEVYQKLKALAKKTY] (H-AEVYQKLKALAKKTY-OH) reads more than 2500 µg/mL.
Under `CC[C@H](C)[C@H](NC(=O)[C@H](C)N)C(=O)N[C@@H](CCC(=O)O)C(=O)N[C@@H](CC(C)C)C(=O)N[C@@H](CCCCN)C(=O)N[C@@H](CO)C(=O)N[C@H](C(=O)N[C@@H](CC(N)=O)C(=O)N[C@@H](C)C(=O)N[C@@H](CC(C)C)C(=O)N[C@@H](CC(C)C)C(=O)N[C@@H](CC(C)C)C(=O)N[C@@H](CCCCN)C(=O)N[C@H](C(=O)N[C@@H](CC(N)=O)C(=O)O)C(C)C)C(C)C` [Peptide 61.2.1, AIELKSVNALLLKVN] (H-AIELKSVNALLLKVN-OH) stands less than 2500 µg/mL.

What is called solubility is how much of the substance goes into solution per volume.
